Data reported in patent US20040142948A1, “Sulfonamides” (priority 2003, published 2004).

Target: T1, HEK-293 cell membranes containing stable cloned human and rat GPR-14 (UniProt Q9UKP6)
T1 sequence (Q9UKP6 1-389): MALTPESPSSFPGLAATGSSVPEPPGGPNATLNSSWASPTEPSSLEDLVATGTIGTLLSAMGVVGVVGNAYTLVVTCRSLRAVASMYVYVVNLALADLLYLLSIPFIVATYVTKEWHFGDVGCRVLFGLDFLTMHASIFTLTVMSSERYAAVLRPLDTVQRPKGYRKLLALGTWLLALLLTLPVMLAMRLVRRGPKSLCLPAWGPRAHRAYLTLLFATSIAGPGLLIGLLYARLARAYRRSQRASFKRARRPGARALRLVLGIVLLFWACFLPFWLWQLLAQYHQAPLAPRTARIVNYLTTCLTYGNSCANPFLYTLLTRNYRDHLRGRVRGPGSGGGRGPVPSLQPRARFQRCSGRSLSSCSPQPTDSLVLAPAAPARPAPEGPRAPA
Assay: Radioligand binding ([125I] h-U-II)
Conditions: [125I] h-U-II 200 pM, species of GPR-14 (human or rat) not given
Experimental: HEK-293 cell membranes containing stable cloned human and rat GPR-14 (20 ug/assay) were incubated with 200 pM [125I] h-U-II (200 Ci/mmol^−1 in the presence of increasing concentrations of test compounds in DMSO (0.1 nM to 10 uM), in a final incubation volume of 200 ul (20 mM Tris-HCl, 5 mM MgCl2). Incubation was done for 30 minutes at room temperature followed by filtration GF/B filters with Brandel cell harvester. ^125I labeled U-II binding was quantitated by gamma counting. Nonspecific binding was defined by ^125I U-II binding in the presence of 100 nM of unlabeled human U-II. Analysis of the data was performed by nonlinear least square fitting.

Question: Which Ki does the source give for `CN1CC[C@@H](Oc2cc(NS(=O)(=O)c3cccc4nsnc34)ccc2Cl)C1` [Example 3, (R)-N-[4-Chloro-3-(1-methyl-3-pyr-rolidinyloxy)-phenyl]-ben-zo[1,2,5]thiadiazole-1-sulfonamide] here?
Answer: 230 nM
